# Experiments:
# Type in all cases: in vivo
# [1] = test system: high fat diet (HFD) mice; experiment: Body weight of high fat diet mice after 16 weeks of treatment
# Method: (§1) Mice were divided into five groups: one group was normal diet mice as ND control group; one group of high fat diet (HFD) mice were gavaged with no-active-ingredients water as HFD control group, one group of HFD mice were treated with BAIBA (65 mg/kg/day) alone by gavage as HFD+BAIBA group, one group of HFD mice were treated with GP (5.2 mg/kg/day) alone by gavage as HFD+GP group, and one group of HFD mice were treated with BAIBA (65 mg/kg/day) and GP (5.2 mg/kg/day) combination by gavage as HFD+BAIBA+GP group, all for 16 weeks.
# At the beginning of treatment (baseline), the body weights of the five groups of mice were the same.
# [2] = test system: high fat diet (HFD) mice; experiment: Body fat mass of high fat diet mice after 16 weeks of treatment
# Method: as §1
# Adipose tissue was collected, fixed with 10% formalin, embedded in paraffin, and dehydrated by graded alcohol. Tissue sections with a thickness of 5 μm were prepared, stained with hematoxylin-eosin (H&E) and observed under an optical microscope with a magnification of 200 times. The body fat mass of each group of mice was measured and recorded.
# [3] = test system: high fat diet (HFD) mice; experiment: Oral glucose tolerance test (OGTT); conditions: 8th week
# Method: as §1
# (§2) At the 8th week after the initial experiment, oral glucose tolerance test (OGTT) and insulin tolerance test (ITT) were performed on mice. OGTT is as follows: Blood from tail tip of mice was taken to detect blood glucose, and glucose (1.5 g/kg) was given by gavage after overnight fasting, and blood glucose was monitored with a blood glucose meter before administration and 15, 30, 60, 90 and 120 minutes after administration. ITT is as follows: Insulin (0.75 U/kg) was given by intraperitoneal injection on an empty stomach, and blood glucose was monitored with a blood glucose meter before administration and 15, 30, 60, 90 and 120 minutes after administration.
# [4] = test system: high fat diet (HFD) mice; experiment: Insulin tolerance test (ITT); conditions: 8th week
# Method: as §1, §2
# As shown in Table 2 and FIG. 3B, after 15 minutes, the blood glucose level of mice in HFD control group decreased greatly, and the blood glucose level before and after the end of insulin half-life was higher than that in other groups. […] It can be seen that the combination of BAIBA and GP can reduce the insulin resistance of mice, that is, improve the insulin sensitivity.
# [5] = test system: high fat diet (HFD) mice; experiment: Serum triglyceride (TG) level by commercial kit; conditions: after 16 weeks of gavage
# Method: as §1
# (§3) After the mice were killed, the serum was extracted by centrifugation, and the levels of triglyceride (TG) and total cholesterol (TC) in mice were measured by using commercial kits according to the instructions and recorded.
# [6] = test system: high fat diet (HFD) mice; experiment: Serum total cholesterol (TC) level by commercial kit; conditions: after 16 weeks of gavage
# Method: as §1, §3
# [7] = test system: high fat diet (HFD) mice; experiment: Serum leptin level by ELISA kit; conditions: after 16 weeks of gavage
# Method: as §1
# The serum of mice was centrifuged, and the level of leptin in serum was determined by ELISA kit. According to the concentration value and light absorption value of leptin, the logarithmic value was taken as a standard curve, and the concentration value of leptin was converted according to the standard curve.
# [8] = gavage, BAIBA 65 mg/kg/day and/or GP 5.2 mg/kg/day, after 16 weeks
# [9] = versus HFD control, after 16 weeks of gavage
compound,measurement,setting,value
"CC(CN)C(=O)O (stereo not drawn) [BAIBA, β-aminoisobutyric acid]",body weight,[1]; [8],47.8 g
same,body weight reduced by,[1]; [9],2.84%
same,body fat mass,[2]; [8],5.38 g
same,body fat mass reduced by,[2]; [9],13.78%
same,"blood glucose level in OGTT, 15 min",[3]; 15 min after glucose 1.5 g/kg by gavage,281.91 mg/dL
same,"blood glucose level in OGTT, 30 min",[3]; 30 min after glucose 1.5 g/kg by gavage,352.74 mg/dL
same,"blood glucose level in OGTT, 60 min",[3]; 60 min after glucose 1.5 g/kg by gavage,411.98 mg/dL
same,"blood glucose level in OGTT, 90 min",[3]; 90 min after glucose 1.5 g/kg by gavage,253.21 mg/dL
same,"blood glucose level in OGTT, 120 min",[3]; 120 min after glucose 1.5 g/kg by gavage,192.99 mg/dL
same,"blood glucose level in OGTT compared with other groups, in words",[3]; across time points,lower than that in HFD control group at each time point
same,"blood glucose level in OGTT, pre-dose","[3]; overnight fasting, before glucose 1.5 g/kg by gavage",199.85 mg/dL
same,"blood glucose level in ITT, 15 min",[4]; 15 min after insulin 0.75 U/kg intraperitoneal,105.23 mg/dL
same,"blood glucose level in ITT, 30 min",[4]; 30 min after insulin 0.75 U/kg intraperitoneal,101.45 mg/dL
same,"blood glucose level in ITT, 60 min",[4]; 60 min after insulin 0.75 U/kg intraperitoneal,90.45 mg/dL
same,"blood glucose level in ITT, 90 min",[4]; 90 min after insulin 0.75 U/kg intraperitoneal,95.24 mg/dL
same,"blood glucose level in ITT, 120 min",[4]; 120 min after insulin 0.75 U/kg intraperitoneal,92.56 mg/dL
same,"blood glucose level in ITT compared with other groups, in words",[4]; across time points,higher than that in HFD control group at each time point
same,"blood glucose level in ITT, pre-dose","[4]; empty stomach, before insulin 0.75 U/kg intraperitoneal",140.4 mg/dL
same,triglyceride (TG) level,[5],98.45 mg/dL
same,total cholesterol (TC) level,[6],220.65 mg/dL
same,leptin level,[7],278.12 pg/mL

# — patent US20250161396A1, “COMPOSITION AND METHOD FOR IMPROVING LIPID METABOLISM FUNCTION OF SUBJECT” (NANJING NUTRABUILDING BIO-TECH CO., LTD., priority 2022, published 2025)
